Data on 14 compounds can be found in ChEMBL document CHEMBL4808229, “Privileged scaffolds in medicinal chemistry: Studies on pyrazolo[1,5-a]pyrimidines on sulfonamide containing Carbonic Anhydrase inhibitors” (Bioorg Med Chem Lett, 2021).

The target of this test is Carbonic anhydrase 9 (Homo sapiens, UniProt Q16790). In words: Inhibition of recombinant human carbonic anhydrase 9 by stopped-flow CO2 hydration assay.

Each structure is given as a SMILES string.

Usually Ki stands for a measure of affinity in units of concentration, obtained from inhibition or displacement. `CCOC(=O)c1cnc2c(NC(=O)NCCc3ccc(S(N)(=O)=O)cc3)cnn2c1C`: the inhibition constant Ki is 0.975 µM.
For `CCOC(=O)c1cnc2c(NC(=S)NCc3ccc(S(N)(=O)=O)cc3)cnn2c1C`, the Ki came to 0.023 µM.
The result for `CCOC(=O)c1cnc2c(NC(=S)NCCc3ccc(S(N)(=O)=O)cc3)cnn2c1C` reads 0.919 µM; that for `Cc1c(C(=O)O)cnc2c(NC(=O)Nc3cccc(S(N)(=O)=O)c3)cnn12`, 0.523 µM.
The result for `CCOC(=O)c1cnc2c(NC(=O)c3ccc(S(N)(=O)=O)cc3)cnn2c1C` reads 0.142 µM.
As for `CCOC(=O)c1cnc2c(NC(=S)Nc3ccc(S(N)(=O)=O)cc3)cnn2c1C`, the Ki turned out to be 0.68 µM.
Consider `CCOC(=O)c1cnc2c(NC(=O)N/C=C/c3ccc(S(N)(=O)=O)cc3)cnn2c1C`, for which the Ki is 0.843 µM.
The value for `Cc1c(C(=O)O)cnc2c(NC(=O)Nc3ccc(S(N)(=O)=O)cc3)cnn12` was 0.851 µM.
The value for `CCOC(=O)c1cnc2c(NC(=O)c3ccc(Cl)c(S(N)(=O)=O)c3)cnn2c1C` was 0.0065 µM.
As for `Cc1c(C(=O)O)cnc2c(NC(=O)NCc3ccc(S(N)(=O)=O)cc3)cnn12`, the inhibition constant (Ki) was found to be 0.703 µM.
Regarding `Cc1c(C(=O)O)cnc2c(NC(=O)NCCc3ccc(S(N)(=O)=O)cc3)cnn12`, the Ki came out at 0.212 µM.
The result for `CCOC(=O)c1cnc2c(NC(=O)NCc3ccc(S(N)(=O)=O)cc3)cnn2c1C` reads 0.0097 µM; that for `CCOC(=O)c1cnc2c(NC(=S)Nc3cccc(S(N)(=O)=O)c3)cnn2c1C`, 0.312 µM; that for `Cc1c(C(=O)O)cnc2c(NC(=O)c3ccc(S(N)(=O)=O)cc3)cnn12`, 0.142 µM.
